Results on one molecule are retold here after paper PMC5218480 (PLoS ONE, 2017).

The test deals with MV-4-11 cells. The experiment in a line: Gene expression microarray analysis (Affymetrix PrimeView) and GSEA. As to conditions: ProbeSet 11722022_s_at; LIST D. More on the design: RFU PODN (11730768_x_at) / Fold change /veh PODN (11730768_x_at) / RFU LINC00158 (11744669_a_at) / Fold change /veh LINC00158 (11744669_a_at) / RFU DUSP10 (11751237_a_at) / Fold change /veh DUSP10 (11751237_a_at) / RFU ID3 (11757404_x_at) / Fold change /veh ID3 (11757404_x_at) / RFU PLEKHG5 (11737974_s_at) / Fold change /veh PLEKHG5 (11737974_s_at) / RFU LRRC4B (11730491_at) / Fold change /veh LRRC4B (11730491_at) / RFU GIMAP4 (11747438_a_at) / Fold change /veh GIMAP4 (11747438_a_at) / RFU KRT8 (11758183_x_at) / Fold change /veh KRT8 (11758183_x_at) / RFU CNN1 (11734310_a_at) / Fold change /veh CNN1 (11734310_a_at) / RFU VPS37D (11726825_at) / Fold change /veh VPS37D (11726825_at) / RFU C10orf10 (11716522_x_at) / Fold change /veh C10orf10 (11716522_x_at) / RFU KIR2DL2 /// KIR2DL4 /// KIR2DL5A /// KIR2DL5B /// KIR2DS1 /// KIR2DS2 /// KIR2DS3 /// KIR2DS4 /// KIR3DL3 /// KIR3DL3 /// KIR3DS1 (11738374_at) / Fold change /veh KIR2DL2 /// KIR2DL4 /// KIR2DL5A /// KIR2DL5B /// KIR2DS1 /// KIR2DS2 /// KIR2DS3 /// KIR2DS4 /// KIR3DL3 /// KIR3DL3 /// KIR3DS1 (11738374_at) / RFU C1QL1 (11718748_at) / Fold change /veh C1QL1 (11718748_at) / RFU TMPRSS4 (11747572_a_at) / Fold change /veh TMPRSS4 (11747572_a_at) / RFU HAMP (11756126_x_at) / Fold change /veh HAMP (11756126_x_at) / RFU RNFT2 (11725882_a_at) / Fold change /veh RNFT2 (11725882_a_at) / RFU NR4A2 (11747474_a_at) / Fold change /veh NR4A2 (11747474_a_at) / RFU ABCC12 (11746883_a_at) / Fold change /veh ABCC12 (11746883_a_at) / RFU TMEM136 (11760407_x_at) / Fold change /veh TMEM136 (11760407_x_at) / RFU CLDN22 /// WWC2 (11732394_at) / Fold change /veh CLDN22 /// WWC2 (11732394_at) / RFU HLA-DPB1 (11760878_x_at) / Fold change /veh HLA-DPB1 (11760878_x_at) / RFU SPINT1 (11716480_a_at) / Fold change /veh SPINT1 (11716480_a_at) / RFU GAP43 (11754022_s_at) / Fold change /veh GAP43 (11754022_s_at) / RFU A4GNT (11735810_at) / Fold change /veh A4GNT (11735810_at) / RFU PRB3 (11715151_x_at) / Fold change /veh PRB3 (11715151_x_at) / RFU TUBB4B (11761932_at) / Fold change /veh TUBB4B (11761932_at) / RFU CAPN14 (11732068_a_at) / Fold change /veh CAPN14 (11732068_a_at) / RFU TMCC2 (11721928_a_at) / Fold change /veh TMCC2 (11721928_a_at) / RFU IRGQ (11745062_a_at) / Fold change /veh IRGQ (11745062_a_at) / RFU FAM174B (11720279_a_at) / Fold change /veh FAM174B (11720279_a_at) / RFU TMPRSS4 (11748680_a_at) / Fold change /veh TMPRSS4 (11748680_a_at) / RFU FAM212B (11763350_a_at) / Fold change /veh FAM212B (11763350_a_at) / RFU PLEKHG5 (11743358_a_at) / Fold change /veh PLEKHG5 (11743358_a_at) / RFU ZSCAN30 (11745921_a_at) / Fold change /veh ZSCAN30 (11745921_a_at) / RFU CMKLR1 (11741424_a_at) / Fold change /veh CMKLR1 (11741424_a_at) / RFU LOC101060620 /// MAPK8IP1 (11723275_at) / Fold change /veh LOC101060620 /// MAPK8IP1 (11723275_at) / RFU SPTSSB (11747773_x_at) / Fold change /veh SPTSSB (11747773_x_at) / RFU PRSS12 (11739890_at) / Fold change /veh PRSS12 (11739890_at) / RFU BIN1 (11741810_x_at) / Fold change /veh BIN1 (11741810_x_at) / RFU WNT11 (11732464_a_at) / Fold change /veh WNT11 (11732464_a_at) / RFU C10orf10 (11716521_a_at) / Fold change /veh C10orf10 (11716521_a_at) / RFU C5orf56 (11738089_at) / Fold change /veh C5orf56 (11738089_at) / RFU CYB561 (11721691_x_at) / Fold change /veh CYB561 (11721691_x_at) / RFU ANKRD19P (11752326_a_at) / Fold change /veh ANKRD19P (11752326_a_at) / RFU OR2T12 /// OR2T33 /// OR2T8 (11738714_s_at) / Fold change /veh OR2T12 /// OR2T33 /// OR2T8 (11738714_s_at) / RFU VCAN (11748164_a_at) / Fold change /veh VCAN (11748164_a_at) / RFU JSRP1 (11732532_at) / Fold change /veh JSRP1 (11732532_at) / RFU KRTAP10-11 (11738290_x_at) / Fold change /veh KRTAP10-11 (11738290_x_at) / RFU MYO3A (11730013_a_at) / Fold change /veh MYO3A (11730013_a_at) / RFU EBF3 (11725865_a_at) / Fold change /veh EBF3 (11725865_a_at) / RFU CAMK2N1 (11719241_x_at) / Fold change /veh CAMK2N1 (11719241_x_at) / RFU C5orf56 (11738088_a_at) / Fold change /veh C5orf56 (11738088_a_at) / RFU OLFML3 (11715873_a_at) / Fold change /veh OLFML3 (11715873_a_at) / RFU LOC100653217 /// NTM (11731650_a_at) / Fold change /veh LOC100653217 /// NTM (11731650_a_at) / RFU MAPK11 (11762145_a_at) / Fold change /veh MAPK11 (11762145_a_at) / RFU FIZ1 (11724087_x_at) / Fold change /veh FIZ1 (11724087_x_at) / RFU OASL (11726364_x_at) / Fold change /veh OASL (11726364_x_at) / RFU SOX15 (11748057_x_at) / Fold change /veh SOX15 (11748057_x_at) / RFU CD79A (11719716_a_at) / Fold change /veh CD79A (11719716_a_at) / RFU HIST1H1D (11736915_at) / Fold change /veh HIST1H1D (11736915_at) / RFU CASKIN2 (11723855_a_at) / Fold change /veh CASKIN2 (11723855_a_at) / RFU LOC730098 (11760151_x_at) / Fold change /veh LOC730098 (11760151_x_at) / RFU OR4N2 (11742367_at) / Fold change /veh OR4N2 (11742367_at) / RFU PRRT2 (11749266_a_at) / Fold change /veh PRRT2 (11749266_a_at) / RFU SNX32 (11753110_a_at) / Fold change /veh SNX32 (11753110_a_at) / RFU CDHR5 (11726645_a_at) / Fold change /veh CDHR5 (11726645_a_at) / RFU RCAN1 (11760418_a_at) / Fold change /veh RCAN1 (11760418_a_at) / RFU FAM167A (11723789_a_at) / Fold change /veh FAM167A (11723789_a_at) / RFU FAM26E (11764081_at) / Fold change /veh FAM26E (11764081_at) / RFU ISYNA1 (11749810_s_at) / Fold change /veh ISYNA1 (11749810_s_at) / RFU ACY1 (11761880_at) / Fold change /veh ACY1 (11761880_at) / RFU 11764098_at / Fold change /veh 11764098_at / RFU SAMD14 (11745864_x_at) / Fold change /veh SAMD14 (11745864_x_at) / RFU NPB (11741838_a_at) / Fold change /veh NPB (11741838_a_at) / RFU TMPRSS6 (11731388_a_at) / Fold change /veh TMPRSS6 (11731388_a_at) / RFU KRTAP10-2 (11738614_at) / Fold change /veh KRTAP10-2 (11738614_at) / RFU ARHGAP8 /// PRR5-ARHGAP8 (11727945_x_at) / Fold change /veh ARHGAP8 /// PRR5-ARHGAP8 (11727945_x_at) / RFU KRTAP5-7 /// NADSYN1 (11734609_at) / Fold change /veh KRTAP5-7 /// NADSYN1 (11734609_at) / RFU RASL12 (11751679_a_at) / Fold change /veh RASL12 (11751679_a_at) / RFU CDKN2B (11736163_a_at) / Fold change /veh CDKN2B (11736163_a_at) / RFU PRF1 (11729649_at) / Fold change /veh PRF1 (11729649_at) / RFU, ZNF638 /// ZNF638-IT1 / Fold change vs veh, ZNF638 /// ZNF638-IT1 / RFU, PANK3 / Fold change vs veh, PANK3 / RFU, SH3YL1 / Fold change vs veh, SH3YL1 / RFU, ZEB2 / Fold change vs veh, ZEB2 / RFU, NRIP1 / Fold change vs veh, NRIP1 / RFU, PTTG1IP / Fold change vs veh, PTTG1IP / RFU, CAPN2 / Fold change vs veh, CAPN2 / RFU, MED14 / Fold change vs veh, MED14 / RFU, SNORA58 / Fold change vs veh, SNORA58 / RFU, C1orf63 / Fold change vs veh, C1orf63 / RFU, LRRFIP1 / Fold change vs veh, LRRFIP1 / RFU, NDUFAF7 / Fold change vs veh, NDUFAF7 / RFU, SLC12A2 / Fold change vs veh, SLC12A2 / RFU, IBTK / Fold change vs veh, IBTK / RFU, ESF1 / Fold change vs veh, ESF1 / Fold change vs veh, TMEM50B / RFU, TAOK1 / Fold change vs veh, TAOK1 / RFU, ACBD3 / Fold change vs veh, ACBD3 / RFU, TMA16 / Fold change vs veh, TMA16 / RFU, RWDD3 / Fold change vs veh, RWDD3 / RFU, BCAT1 / Fold change vs veh, BCAT1 / RFU, EDEM3 / Fold change vs veh, EDEM3 / RFU, TMEM33 / Fold change vs veh, TMEM33 / RFU, WDR75 / Fold change vs veh, WDR75 / RFU, AHCTF1 / Fold change vs veh, AHCTF1 / RFU, TFRC / Fold change vs veh, TFRC / RFU, ZDHHC17 / Fold change vs veh, ZDHHC17 / RFU, NOM1 / Fold change vs veh, NOM1 / RFU, ARL8B / Fold change vs veh, ARL8B / RFU, ZBTB11 / Fold change vs veh, ZBTB11 / RFU, TAMM41 / Fold change vs veh, TAMM41 / RFU, KIAA1704 /// LOC100996395 / Fold change vs veh, KIAA1704 /// LOC100996395 / RFU, ING1 / Fold change vs veh, ING1 / RFU, TRMT61B / Fold change vs veh, TRMT61B / RFU, FUBP3 / Fold change vs veh, FUBP3 / RFU, TP53 / Fold change vs veh, TP53 / RFU, TNKS2 / Fold change vs veh, TNKS2 / RFU, ZFP14 / Fold change vs veh, ZFP14 / RFU, ACTR2 / Fold change vs veh, ACTR2 / RFU, PPP3R1 / Fold change vs veh, PPP3R1 / RFU, PIK3R1 / Fold change vs veh, PIK3R1 / RFU, HNRNPA1 / Fold change vs veh, HNRNPA1 / RFU, RNF170 / Fold change vs veh, RNF170 / RFU, ZNF28 / Fold change vs veh, ZNF28 / RFU, RNGTT / Fold change vs veh, RNGTT / RFU, OGT / Fold change vs veh, OGT / RFU, BRD1 / Fold change vs veh, BRD1 / RFU, MARS / Fold change vs veh, MARS / RFU, ZNF655 / Fold change vs veh, ZNF655 / RFU, FAHD1 / Fold change vs veh, FAHD1 / RFU, BDP1 / Fold change vs veh, BDP1 / RFU, LRRCC1 / Fold change vs veh, LRRCC1 / RFU, ARID1A / Fold change vs veh, ARID1A / RFU, ZNF146 / Fold change vs veh, ZNF146 / RFU, ZNF330 / Fold change vs veh, ZNF330 / RFU, GPN3 / Fold change vs veh, GPN3 / RFU, C9orf123 / Fold change vs veh, C9orf123 / RFU, N4BP2L2 / Fold change vs veh, N4BP2L2 / RFU, ARFIP1 / Fold change vs veh, ARFIP1 / RFU, FAM179B / Fold change vs veh, FAM179B / RFU, BCL10 / Fold change vs veh, BCL10 / RFU, UHRF1BP1L / Fold change vs veh, UHRF1BP1L / RFU, BET1 / Fold change vs veh, BET1 / RFU, CNOT2 / Fold change vs veh, CNOT2 / RFU, ZNF268 / Fold change vs veh, ZNF268 / Fold change vs veh, ZNF507 / RFU, DGCR2 / Fold change vs veh, DGCR2 / RFU, WDSUB1 / Fold change vs veh, WDSUB1 / Fold change vs veh, HSP90B1 /// MIR3652 / RFU, ADSS / Fold change vs veh, ADSS / RFU, GK / Fold change vs veh, GK / RFU, ZNF148 / Fold change vs veh, ZNF148 / RFU, TAF9 / Fold change vs veh, TAF9 / RFU, SLC1A5 / Fold change vs veh, SLC1A5 / RFU, SLMO2 / Fold change vs veh, SLMO2 / RFU, ABCC4 / Fold change vs veh, ABCC4 / RFU, LOC101060439 /// RAP1B / Fold change vs veh, LOC101060439 /// RAP1B / RFU, RFX7 / Fold change vs veh, RFX7 / RFU, GTPBP10 / Fold change vs veh, GTPBP10 / RFU, CNEP1R1 / Fold change vs veh, CNEP1R1 / RFU, BIVM-ERCC5 /// ERCC5 / Fold change vs veh, BIVM-ERCC5 /// ERCC5 / RFU, ILF3 / Fold change vs veh, ILF3 / RFU 11762660_at / Fold change /veh 11762660_at / RFU VCAN (11757783_s_at) / Fold change /veh VCAN (11757783_s_at) / RFU DDX43 (11728927_at) / Fold change /veh DDX43 (11728927_at) / RFU KRT8 (11758188_x_at) / Fold change /veh KRT8 (11758188_x_at) / RFU NKD1 (11759106_at) / Fold change /veh NKD1 (11759106_at) / RFU SRD5A1 (11742802_a_at) / Fold change /veh SRD5A1 (11742802_a_at) / RFU TPSAB1 /// TPSB2 (11721975_s_at) / Fold change /veh TPSAB1 /// TPSB2 (11721975_s_at) / RFU GSTM3 (11746129_a_at) / Fold change /veh GSTM3 (11746129_a_at) / RFU IL23R (11737362_x_at) / Fold change /veh IL23R (11737362_x_at) / RFU TMEM51 (11727254_a_at) / Fold change /veh TMEM51 (11727254_a_at) / RFU PIWIL2 (11732686_x_at) / Fold change /veh PIWIL2 (11732686_x_at) / RFU ORM1 (11744905_x_at) / Fold change /veh ORM1 (11744905_x_at) / RFU CCDC152 (11743942_at) / Fold change /veh CCDC152 (11743942_at) / RFU ECM1 (11717891_a_at) / Fold change /veh ECM1 (11717891_a_at) / RFU IL23R (11748794_a_at) / Fold change /veh IL23R (11748794_a_at) / RFU TNFAIP8L3 (11732012_x_at) / Fold change /veh TNFAIP8L3 (11732012_x_at) / RFU MBOAT4 (11741988_at) / Fold change /veh MBOAT4 (11741988_at) / RFU 11764193_at / Fold change /veh 11764193_at / RFU TMEM53 (11763286_at) / Fold change /veh TMEM53 (11763286_at) / RFU MAGEB2 (11727129_at) / Fold change /veh MAGEB2 (11727129_at) / RFU TMEM200A (11744735_a_at) / Fold change /veh TMEM200A (11744735_a_at) / RFU CCDC152 (11751479_a_at) / Fold change /veh CCDC152 (11751479_a_at) / RFU FAM211A (11726209_a_at) / Fold change /veh FAM211A (11726209_a_at) / RFU RGS16 (11746705_a_at) / Fold change /veh RGS16 (11746705_a_at) / RFU VCAN (11755009_s_at) / Fold change /veh VCAN (11755009_s_at) / RFU RHOB (11743442_s_at) / Fold change /veh RHOB (11743442_s_at) / RFU RGS16 (11720943_a_at) / Fold change /veh RGS16 (11720943_a_at) / RFU RGS16 (11720944_at) / Fold change /veh RGS16 (11720944_at) / RFU, VPS4B / Fold change vs veh, VPS4B / RFU, CREB1 / Fold change vs veh, CREB1 / RFU, DNAJC13 / Fold change vs veh, DNAJC13 / RFU, GNAQ / Fold change vs veh, GNAQ / RFU, CDK5R1 / Fold change vs veh, CDK5R1 / RFU, ZRANB3 / Fold change vs veh, ZRANB3 / RFU, CUL4A / Fold change vs veh, CUL4A / RFU, CCNY / Fold change vs veh, CCNY / RFU, UFL1 / Fold change vs veh, UFL1 / RFU, COG3 / Fold change vs veh, COG3 / RFU, DIAPH2 / Fold change vs veh, DIAPH2 / RFU, SKA2 / Fold change vs veh, SKA2 / RFU, AFF3 / Fold change vs veh, AFF3 / RFU, LMF1 / Fold change vs veh, LMF1 / RFU, IPO11 / Fold change vs veh, IPO11 / RFU, DFFB / Fold change vs veh, DFFB / RFU, FOXP1 / Fold change vs veh, FOXP1 / RFU, CARD8 / Fold change vs veh, CARD8 / RFU, STRN3 / Fold change vs veh, STRN3 / RFU, ADK / Fold change vs veh, ADK / RFU, RASSF2 / Fold change vs veh, RASSF2 / RFU, WIPF1 / Fold change vs veh, WIPF1 / RFU, LARP1B / Fold change vs veh, LARP1B / RFU, RASA1 / Fold change vs veh, RASA1 / RFU, RB1 / Fold change vs veh, RB1 / RFU, PPFIA1 / Fold change vs veh, PPFIA1 / RFU, MAT2A / Fold change vs veh, MAT2A / RFU, CCT5 / Fold change vs veh, CCT5 / RFU, WDR92 / Fold change vs veh, WDR92 / RFU, CUX1 / Fold change vs veh, CUX1 / RFU, TTC7A / Fold change vs veh, TTC7A / RFU, TMEM135 / Fold change vs veh, TMEM135 / RFU, DEPTOR / Fold change vs veh, DEPTOR / RFU, CPM / Fold change vs veh, CPM / RFU, DNAJB6 / Fold change vs veh, DNAJB6 / RFU, CACNA2D3 / Fold change vs veh, CACNA2D3 / RFU, DTX4 / Fold change vs veh, DTX4 / RFU, TFCP2 / Fold change vs veh, TFCP2 / RFU, GMCL1 /// GMCL1P1 / Fold change vs veh, GMCL1 /// GMCL1P1 / RFU, AEBP2 / Fold change vs veh, AEBP2 / RFU, SNHG1 /// SNORD22 /// SNORD25 /// SNORD26 /// SNORD27 /// SNORD28 /// SNORD29 /// SNORD31 / Fold change vs veh, SNHG1 /// SNORD22 /// SNORD25 /// SNORD26 /// SNORD27 /// SNORD28 /// SNORD29 /// SNORD31 / Fold change (Aza/veh), C12orf56 (ProbeSet 11735607_a_at) / Fold change (ACY-1035/veh), C12orf56 (ProbeSet 11735607_a_at) / Fold change (Aza/veh), FGFR1OP (ProbeSet 11751329_s_at) / Fold change (ACY-1035/veh), FGFR1OP (ProbeSet 11751329_s_at) / Fold change (Aza/veh), VPS36 (ProbeSet 11739960_a_at) / Fold change (ACY-1035/veh), VPS36 (ProbeSet 11739960_a_at) / RFU SYPL1 (11715823_x_at) / Fold change /veh SYPL1 (11715823_x_at) / RFU IGFBP7 (11715501_s_at) / Fold change /veh IGFBP7 (11715501_s_at) / RFU REEP3 (11722064_at) / Fold change /veh REEP3 (11722064_at) / RFU IGLL1 (11728026_x_at) / Fold change /veh IGLL1 (11728026_x_at): dose or concentration left out as unconfirmed. Format: cell-based, human.

On to `Nc1ncn([C@@H]2O[C@H](CO)[C@@H](O)[C@H]2O)c(=O)n1` [azacitidine], for which the “RFU, CDK5R1” value amounted to 40.46 RFU.
